Laboratory results: the supplement of paper PMC8967900

How the values were obtained:
Assay in all cases: selective drug sensitivity score (sDSS, relative to normal bone marrow) (sDSS (score)); higher = more potent and effective on the cell line relative to normal bone marrow cells
Details in all cases: 72 h
[1] = system: MHH-CALL-3
[2] = system: JURKAT
[3] = system: COG-LL-332h
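Also: ALL cell lines in 384-well plates, five doses spanning 10,000-fold, each plate scaled between vehicle and 100 µmol/L benzalkonium chloride controls, sDSS an adapted area-under-curve metric.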

Row | SMILES | selective drug sensitivity score [1] | selective drug sensitivity score [2] | selective drug sensitivity score [3]
1 | O=C(CCCCCCNC(=O)c1cnc(N(c2ccccc2)c2ccccc2)nc1)NO [Rocilinostat] (top concentration 10000 nM) | 14.5 | 2.74 | 3.34
2 | CC(=O)c1cc2c(o1)C(=O)c1ccccc1C2=O [Napabucasin] (top concentration 20000 nM) | -3.28 | 0.52 | 2.32
3 | CC(C)Nc1cc(-c2c[nH]c(C(=O)N[C@H](CO)c3cccc(Cl)c3)c2)c(Cl)cn1 [Ulixertinib] (top concentration 10000 nM) | -4.38 | -1.08 | 1.92
4 | NC1(C(=O)N[C@@H](CCO)c2ccc(Cl)cc2)CCN(c2ncnc3[nH]ccc23)CC1 [AZD-5363] (top concentration 10000 nM) | 6.72 | 6.72 | 4.02
5 | Cn1cc(-c2ccc(F)c(C(F)(F)F)c2)nc1C1CCN(c2ncnc3[nH]ncc23)CC1 (top concentration 10000 nM) | 5.16 | -0.14 | 1.56
6 | Cc1nc(Nc2n[nH]c3c2CN(C(=O)N[C@H](CN(C)C)c2ccccc2)C3(C)C)c2sccc2n1 (top concentration 10000 nM) | 0.18 | 0.68 | 7.58
7 | CO[C@H]1C[C@@H]2CC[C@@H](C)[C@@](O)(O2)C(=O)C(=O)N2CCCC[C@H]2C(=O)O[C@H]([C@H](C)C[C@@H]2CC[C@@H](O)[C@H](OC)C2)CC(=O)[C@H](C)/C=C(\C)[C@@H](O)[C@@H](OC)C(=O)[C@H](C)C[C@H](C)/C=C/C=C/C=C/1C [Sirolimus] (top concentration 100 nM) | 5.74 | -1.96 | 3.04
8 | Cc1ncc(Cl)cc1NCc1ccc(C(=O)N[C@@H](CC2CCCC2)C(=O)NC2CC2)s1 (top concentration 5000 nM) | 8.26 | 0.76 | 1.86
9 | Nc1ccccc1NC(=O)c1ccc(CNc2nccc(-c3cccnc3)n2)cc1 [Mocetinostat] (top concentration 10000 nM) | 12.4 | 6.74 | 7.04
10 | CC(=O)O[C@]1(C(C)=O)CC[C@H]2[C@@H]3C=C(C)C4=CC(=O)CC[C@]4(C)[C@H]3CC[C@@]21C [Megestrol_acetate] (top concentration 10000 nM) | 4.22 | 1.02 | -0.58
11 | CN(C)C1CCN(C(=O)c2ccc(NC(=O)Nc3ccc(-c4nc(N5CCOCC5)nc(N5CCOCC5)n4)cc3)cc2)CC1 [Gedatolisib] (top concentration 1000 nM) | -1.64 | 2.66 | 4.96
12 | CN[C@@H]1C[C@H]2O[C@@](C)([C@@H]1OC)n1c3ccccc3c3c4c(c5c6ccccc6n2c5c31)C(=O)N[C@H]4O [UCN-01] (top concentration 10000 nM) | 6.24 | 0.34 | 1.44
13 | Cn1cc(CNCC2CCN(c3ncc(C(=O)NO)cn3)CC2)c2ccccc21 [Quisinostat] (top concentration 1000 nM) | 17 | 1.78 | 1.48
14 | C[C@H]1C=C2C(=O)O[C@H]3CC[C@@H](C1)[C@@]23O [Galiellalactone] (top concentration 25000 nM) | 11.4 | 1.66 | 6.06
15 | C=CC(=O)N1CC/C(=C\c2ccc(F)c([N+](=O)[O-])c2)C(=O)/C(=C/c2ccc(F)c([N+](=O)[O-])c2)C1 [VLX1570] (top concentration 10000 nM) | 5.98 | -8.52 | -0.52
16 | CCS(=O)(=O)N1CCN(c2ccc(Nc3ncc(C(N)=O)c(NC4CC4)n3)cc2)CC1 [Cerdulatinib] (top concentration 10000 nM) | -11.9 | -8.66 | -4.26
17 | Nc1cc(F)ccc1NC(=O)c1ccc(CNC(=O)/C=C/c2cccnc2)cc1 [Tucidinostat] (top concentration 10000 nM) | 11.4 | 1.34 | -2.76
18 | CCN(CC)CCNC(=O)c1c(C)[nH]c(/C=C2\C(=O)Nc3ccc(F)cc32)c1C [Sunitinib] (top concentration 1000 nM) | -1.44 | -1.44 | -1.44
19 | CN[C@@H](C)C(=O)N[C@H](C(=O)N1CCC[C@H]1c1nc(C(=O)c2ccc(F)cc2)cs1)C1CCCCC1 [NVP-LCL161] (top concentration 25000 nM) | -3.22 | -3.82 | 2.38
20 | COCC[n+]1c2c(n(Cc3cnccn3)c1C)C(=O)c1ccccc1C2=O [Sepantronium_bromide] (top concentration 10000 nM) | 22.3 | 14.2 | 14.2

Row | SMILES | selective drug sensitivity score [1] | selective drug sensitivity score [2] | selective drug sensitivity score [3]
21 | CCN(CCO)CCCOc1ccc2c(Nc3cc(CC(=O)Nc4cccc(F)c4)[nH]n3)ncnc2c1 [AZD1152-HQPA] (top concentration 1000 nM) | 5.24 | -0.26 | 21.6
22 | O=C(Nc1nc2cccc(-c3ccc(CN4CCS(=O)(=O)CC4)cc3)n2n1)C1CC1 [Filgotinib] (top concentration 10000 nM) | 1.26 | -1.34 | -1.84
23 | Cn1cc(-c2[nH]c3cc(NC(=O)[C@H](N)C4CCCCC4)cc4c3c2C=NNC4=O)cn1 (top concentration 10000 nM) | 0.38 | 3.48 | 4.98
24 | C#Cc1cccc(Nc2ncnc3cc(OCCOC)c(OCCOC)cc23)c1 [Erlotinib] (top concentration 10000 nM) | 1.66 | 2.26 | 1.96
25 | C[C@@H]1COC(Nc2ccc3ncnc(Nc4ccc(OCc5nccs5)c(Cl)c4)c3c2)=N1 [Varlitinib] (top concentration 10000 nM) | -0.18 | -0.18 | 2.12
26 | CC(=O)c1c(C)c2cnc(Nc3ccc(N4CCNCC4)cn3)nc2n(C2CCCC2)c1=O [Palbociclib] (top concentration 10000 nM) | 5.38 | 1.58 | 3.68
27 | C[C@H]1O[C@@H](O[C@H]2[C@@H](O)C[C@H](O[C@H]3[C@@H](O)C[C@H](O[C@H]4CC[C@@]5(C)[C@H](CC[C@@H]6[C@@H]5C[C@@H](O)[C@]5(C)[C@@H](C7=CC(=O)OC7)CC[C@]65O)C4)O[C@@H]3C)O[C@@H]2C)C[C@H](O)[C@@H]1O [Digoxin] (top concentration 1000 nM) | 10.5 | 10 | 9.8
28 | Cc1c(-c2c(-c3ccc(F)o3)sc3ncnc(O[C@H](Cc4ccccc4OCc4ccnn4CC(F)(F)F)C(=O)O)c23)ccc(OCCN2CCN(C)CC2)c1Cl (top concentration 1000 nM) | 1.56 | -6.44 | -5.84
29 | Cc1nc(NC(=O)N2CCC[C@H]2C(N)=O)sc1-c1ccnc(C(C)(C)C(F)(F)F)c1 [Alpelisib] (top concentration 2500 nM) | -0.82 | -0.82 | 0.18
30 | CC(C)[C@H]1C(=O)N[C@@H](CCCNC(=N)N)C(=O)NCC(=O)N[C@@H](CC(=O)O)C(=O)N[C@H](Cc2ccccc2)C(=O)N1C [Cilengitide] (top concentration 10000 nM) | 0 | 0 | 0
31 | COCCNCc1ccc(-c2cc3nccc(Oc4ccc(NC(=O)C5(C(=O)Nc6ccc(F)cc6)CC5)cc4F)c3s2)nc1 [Sitravatinib] (top concentration 2500 nM) | -0.42 | 0.38 | 5.98
32 | O=C(Nc1c[nH]nc1-c1nc2ccc(CN3CCOCC3)cc2[nH]1)NC1CC1 [AT9283] (top concentration 1000 nM) | 10.4 | -1.38 | 11.7
33 | O=C1CCc2c(Oc3ccc4c(c3)[C@@H]3[C@H](O4)[C@H]3c3nc4cc(C(F)(F)F)ccc4[nH]3)ccnc2N1 [Lifirafenib (BGB-283)] (top concentration 10000 nM) | 0.68 | 5.28 | 8.18
34 | CC(C)(C)Cn1c(N)nc2ccc(-c3[nH]c(C(C)(C)C)nc3-c3ccc(F)cc3)nc21 [Ralimetinib] (top concentration 10000 nM) | -0.84 | 1.76 | 2.56
35 | COC(=O)N[C@@H](C)CNc1nccc(-c2cn(C(C)C)nc2-c2cc(Cl)cc(NS(C)(=O)=O)c2F)n1 [Encorafenib] (top concentration 1000 nM) | 0 | 1.7 | 0
36 | NC(=O)/C(=C/n1cnc(-c2cc(C(F)(F)F)cc(C(F)(F)F)c2)n1)c1cncnc1 [Eltanexor] (top concentration 10000 nM) | 22.3 | 9.76 | 9.46
37 | CN1CCC(CNc2ccc3ncc(-c4cccc(OC(F)(F)F)c4)n3n2)CC1 [SGI-1776] (top concentration 10000 nM) | -3.98 | -3.28 | 0.22
38 | C[C@@]1(C(=O)Nc2ccc(F)nc2)CCCN1c1nc(Nc2cc(C3CC3)n[nH]2)c2cccn2n1 (top concentration 10000 nM) | 3.28 | -2.62 | 10.5
39 | NC1(c2ccc(-c3nc4ccn5c(=O)[nH]nc5c4cc3-c3ccccc3)cc2)CCC1 [MK-2206] (top concentration 1000 nM) | 3.86 | -0.24 | 2.86
40 | Nc1cc(C(F)(F)F)c(-c2cc(N3CCOCC3)nc(N3CCOCC3)n2)cn1 [Buparlisib] (top concentration 10000 nM) | -1.22 | 8.18 | 3.58
